Values after ≈ are worked out from the molar mass of the structure shown. Values belong to the compound of their own block, whether it stands above or below them.
Columns and labels:
[1] = Determination of solubility in synthetic sebum; format: physicochemical; conditions: oil or lipid, thermodynamic from solid, 32° C., agitated overnight, HPLC, read-out: Solubility in Liquid Synthetic Sebum
Method: Compounds described herein can be tested to evaluate their solubility in lipids. To determine the solubility, a synthetic sebum mixture was used. More specifically, approximately 5 mg of a compound was added into 1.5 ml eppendorf tubes, which was then combined with 0.1 ml of synthetic sebum and then briefly vortexed. Mixtures were placed samples in a shaker pre-heated to 32° C. and then agitated overnight. Prior to sampling for HPLC analysis, tubes were placed in an eppendorf centrifuge and spun at 13000 rpm for 5 min to pellet the insoluble drug portion. Following centrifugation, 20 ul of the top portion of the soluble fraction was sampled, in triplicate, into a 2 ml HPLC vial for analysis and the mass recorded. One ml of THF was then added to each vial to solubilize sebum. To determine their concentrations, HPLC analysis of all compounds was carried out under the same running conditions.

[2] = tested on: hamster ear sebaceous glands; test: Hamster ear sebaceous gland model, repeat topical application; format: in vivo, Syrian golden hamster
Method: The Syrian golden hamster ([…]) ear sebaceous gland model was used to evaluate the effect of repeat application of TOFA and TOFA analogs. Male animals were employed since they have larger sebaceous glands than females a consequence of their higher endogenous levels of androgenic hormones. To define compound effects, cross-sections prepared from hamster ears were treated with the neutral lipid-specific stain Oil Red O. Staining results were compared to the untreated ear of the same animal in order to account for any changes in the overall physiological state of the animal as well as potential systemic effects stemming from local drug application.
Typically, compounds were prepared and applied in 40% dimethyl acetamide (DMA)/30% acetone/30% ethanol (vehicle). Animals were typically 10-12 weeks of age and 100-150 g bodyweight at the start of the experiment. Treatment groups consisted of 5-8 animals. Non-anesthetized hamsters were administered the test material onto the ventral surface of the right ear using a pipette at a volume of 20 μl per ear. Materials were gently massaged into the treatment site with a gloved finger for approximately 15 sec. Hamsters received treatment once daily for 15-28 consecutive days. Application of the test articles occurred within the same 4-hour period on each application day. The left ear remained untreated and served as an internal control site. Animals were evaluated daily for general appearance and potential clinical signs related to treatment such as edema, erythema, discoloration or other changes to the ears. Hamsters were also assessed for general health by coat appearance, behavior, and activity level.
Animals were euthanized by CO2 asphyxiation approximately 16-20 h following the final (21st) application. Tissue samples for sebaceous gland analysis were subsequently taken by histology personnel. The right (treated) and left (untreated) ears were carefully removed from euthanized hamsters. A 3.5 mm punch biopsy of the treated ear was marked with a marking dye on the ventral surface. A punch biopsy of the untreated ear was marked with a separate tissue-marking dye on the ventral surface. Tissues were embedded in a labeled mold filled with “Neg 50” cryo-embedding medium and frozen on liquid nitrogen. These blocks were sequentially wrapped in Parafilm® then aluminum foil for storage at −70° C. until required.
To assess sebaceous gland status, ear cross-sections were initially cut at a thickness of approximately 8 μm onto glass slides and immediately fixed with 10% buffered formalin. Sections were stained with the lipid-specific Oil Red O dye by standard methods, covered with Faramount (Dakocytomation, Ca) acrylic mounting medium, cover slipped and then allowed to set. […] Tissue sections stained with Oil Red O were viewed with a Spot RT digital camera mounted on an Olympus BX60 microscope. An image of the section was taken using the 4× microscope objective. The image was saved using the unique animal identification number, slide number, and magnification. Relative sebaceous gland areas (red staining areas) were determined using Image-Pro software (Media Cybernetics Inc., Silver Spring, Md.). The area of image analysis was the dermis which included the region from the epidermal-dermal junction to the midline of the tissue demarcated by the central cartilage line. Data was expressed as percentage of the area of the tissue cross section which was red in color, representative of lipid-containing structures, in comparison to the total area analyzed.
In these experiments, the compound of the invention, TOFA and vehicle were applied onto male hamster ears. At the end of treatment, the hamsters were sacrificed and the area of sebaceous glands in the treated area was determined. […]

[3] = tested on: moderate to severe acne patients; conditions: oral, at 12 weeks; cited from earlier work
SZ95 sebocytes = test: Inhibition of lipid synthesis in SZ95 sebocytes; format: cell-based, human; conditions: 96-well microtiter plate format
Method: The immortalized human sebocyte cell line, SZ95, was maintained in culture as described in Zouboulis, C. C. et al., J. Invest. Dermatol. (1999), Vol. 113, pp. 1011-1020. Lipid synthesis was stimulated by treating SZ95 cells with arachidonic acid (AA). For measurement of lipid production and lipid inhibition studies, test compounds were dissolved in dimethylsulfoxide (DMSO) and added at the desired concentration in 96-well microtiter plates. The cells were then cultured for up to 72 hours before the plates were washed 3 times with PBS and a final volume of 200 μL PBS/well was added. […] Plate fluorescence was then quantified using a fluorometric plate reader (excitation wavelength: 490 nm; emission wavelength: 590 nm). Inhibition of lipid levels by the test compound was expressed as the % reduction of the fluorescence of AA-stimulated cells in the presence of the test compound relative to the values obtained for the unstimulated control cells. Cell viability was measured by utilizing the conversion of a tetrazolium reagent (MTS) to a colored-formazan product by live cells. […] The color development of the wells was measured using a plate reader at an absorbance of […]. Effect on cell viability by the test compound was expressed as the % reduction of the absorbance for AA-stimulated cells in the presence of the test compound relative to the values obtained for the untreated control cells.

[4] = 21 consecutive days, 75 mM, ear cross-sections (FIG. 3)

solubility [1]: 28.9 ± 9.2 mg/mL (≈ 71.1 mM)
SMILES: CCCCCCCCCCCCCCOc1ccc(C(=O)OCC(F)(F)F)o1 [Compound A, 2,2,2-trifluoroethyl 5-(tetradecyloxy)furan-2-carboxylate]
inflammatory cell presence in skin sections [2, 4]: No appreciable inflammatory cell presence | sebaceous gland area, histological appearance (Oil Red O) [2, 4]: Reduced sebaceous gland area | average gland area lower in comparison to vehicle-treated animals ([2]; after 21 days of application in 40% DMA/30% acetone/30% ethanol (FIG. 2)): 63.5% | sebaceous gland counts versus control values ([2]; samples prepared two weeks after completion of 21-day treatment): significantly lower | sebaceous gland area compared to TOFA and vehicle (FIG. 1) ([2]; topical daily at 75 mM for 21 days in 40% DMA/30% acetone/30% ethanol): ability to reduce sebaceous gland area

solubility [1]: 43 ± 0.5 mg/mL (≈ 117 mM)
SMILES: CCCCCCCCCCCCCCOc1ccc(C(=O)OC(C)C)o1 [Compound B, isopropyl 5-(tetradecyloxy)furan-2-carboxylate]

solubility [1]: 13.6 ± 1.9 mg/mL (≈ 31.2 mM)
SMILES: CCCCCCCCCCCCCCOc1ccc(C(=O)OCc2oc(=O)oc2C)o1 [Compound C, (5-methyl-2-oxo-1,3-dioxol-4-yl)methyl 5-(tetradecyloxy)furan-2-carboxylate]

SMILES: CCCCCCCCCCCCCCOc1ccc(C(=O)O)o1 [TOFA, 5-(tetradecyloxy)-2-furancarboxylic acid]
solubility [1]: 1.5 ± 0.4 mg/mL (≈ 4.62 mM) | inflammatory cell presence in skin sections [2, 4]: No appreciable inflammatory cell presence | tolerability of repeat topical applications ([2]; hamster, in vivo): well-tolerated

SMILES: CC(c1cc2ccccc2s1)N(O)C(N)=O (centres unmarked) [Zileuton]
reduction in inflammatory lesions [3]: 71% | reduction of sebum lipids [3]: 65%

SMILES: CCCCC/C=C\C/C=C\C/C=C\C/C=C\CCCC(=O)O [arachidonic acid]
increase of SZ95 sebocyte lipid levels (SZ95 sebocytes): approximately 5 fold

Source: US9434718B2, “TOFA analogs useful in treating dermatological disorders or conditions” (Dermira (Canada), Inc., priority 2009, dated 2016)
